Here are results for 25 compounds from patent US9884818B2, “Sulphamoylpyrrolamide derivatives and the use thereof as medicaments for the treatment of hepatitis B” (Janssen Sciences Ireland UC, priority 2013, dated 2018).

The subject of series [1] is HBV. In words: Anti-HBV activity, HepG2.2.15 stable transfected cell line, HBV DNA from secreted virions by realtime PCR. The following applies: Hepatitis B virus, HepG2.2.15, 144 h, HepG2.2.15 cells, 6 days of treatment, HBV DNA from secreted virions; read-out: HepG2 2.15 EC50. The series is classed as cell-based.
Series [2] in a line: Cytotoxicity in HepG2 cells, Resazurin viability assay. The settings on record: human, HepG2 cells, HepG2 4 days CC50 (μM), incubated for 4 days, Resazurin assay.
Series [3] has as its system HBV. The experiment in a line: Anti-HBV activity, HepG2.117 inducibly HBV producing cell line (Tet-off), intracellular HBV DNA by realtime PCR. The series is classed as cell-based. The settings on record: Hepatitis B virus, HepG2.117, 72 h, HepG2.117 cells, 3 days of treatment, intracellular HBV DNA; read-out: HepG2 117 EC50.

On to `C[C@H](NS(=O)(=O)c1cc(C(=O)Nc2ccc(F)c(Br)c2)n(C)c1)C(F)(F)F` [Compound 101, N-(3-Bromo-4-fluorophenyl)-1-methyl-4-{[(1S)-2,2,2-trifluoro-1-methylethyl]sulfamoyl}-1H-pyrrole-2-carboxamide], for which the EC50 with HBV [1] and with HBV [3] was 30 nM each time. The CC50 at 4 days in series [2] is > 25 µM.
For the compound `C[C@H](NS(=O)(=O)c1cc(C(=O)Nc2ccc(F)c(C#N)c2)n(C)c1)C(F)(F)F` [Compound 102, N-(3-Cyano-4-fluorophenyl)-1-methyl-4-{[(1S)-2,2,2-trifluoro-1-methylethyl]sulfamoyl}-1H-pyrrole-2-carboxamide], the EC50 with HBV [1] and in the series with HBV [3] was 60 nM each time. Besides, in series [2], the CC50 at 4 days is > 25 µM.
For `C[C@H](NS(=O)(=O)c1cc(C(=O)Nc2cc(F)c(F)c(Cl)c2)n(C)c1)C(F)(F)F` [Compound 103, N-(3-Chloro-4,5-difluorophenyl)-1-methyl-4-{[(1S)-2,2,2-trifluoro-1-methylethyl]sulfamoyl}-1H-pyrrole-2-carboxamide], the values for the EC50 in the series with HBV [1] and in the series on HBV [3] were 50 nM and 20 nM, respectively. In addition, the CC50 at 4 days in series [2] is > 25 µM.
The matching figures for `Cc1cc(NC(=O)c2cc(S(=O)(=O)N[C@@H](C)C(F)(F)F)cn2C)cc(F)c1F` [Compound 104, N-(3,4-Difluoro-5-methylphenyl)-1-methyl-4-{[(1S)-2,2,2-trifluoro-1-methylethyl]sulfamoyl}-1H-pyrrole-2-carboxamide]: 20 nM, 20 nM and > 25 µM.
With `C[C@H](NS(=O)(=O)c1cc(C(=O)Nc2ccc(F)c(Cl)c2)n(C)c1)C(F)(F)F` [Compound 105, N-(3-Chloro-4-fluorophenyl)-1-methyl-4-{[(1S)-2,2,2-trifluoro-1-methylethyl]sulfamoyl}-1H-pyrrole-2-carboxamide], the EC50 with HBV [1] stood at 30 nM; with HBV [3], 20 nM. The CC50 at 4 days in series [2] is > 25 µM.
Taken in the same sequence, the figures for `Cn1cc(S(=O)(=O)NC2(C)COC2)c(F)c1C(=O)Nc1ccc(F)c(Br)c1` [Compound 106, N-(3-Bromo-4-fluorophenyl)-3-fluoro-1-methyl-4-[(3-methyloxetan-3-yl)sulfamoyl]-1H-pyrrole-2-carboxamide] were 10 nM, 10 nM and > 25 µM.
On to `Cn1cc(S(=O)(=O)NC2(C)COC2)c(F)c1C(=O)Nc1ccc(F)c(C(F)F)c1` [Compound 107, N-[3-(Difluoromethyl)-4-fluorophenyl]-3-fluoro-1-methyl-4-[(3-methyloxetan-3-yl)sulfamoyl]-1H-pyrrole-2-carboxamide], for which the EC50 with HBV [1] and in the series on HBV [3] was 10 nM throughout. For the same compound, in series [2], the CC50 at 4 days is > 25 µM.
With `Cn1cc(S(=O)(=O)NC2(C)COC2)c(F)c1C(=O)Nc1cc(F)c(F)cc1F` [Compound 109, 3-Fluoro-1-methyl-4-[(3-methyloxetan-3-yl)sulfamoyl]-N-(2,4,5-trifluorophenyl)-1H-pyrrole-2-carboxamide], the EC50 in the series on HBV [1] amounted to 240 nM; in the series on HBV [3], 100 nM. Besides, in series [2], the CC50 at 4 days was > 25 µM.
Taken in the same sequence, the figures for `Cc1c(F)ccc(NC(=O)c2c(F)c(S(=O)(=O)NC3(C)COC3)cn2C)c1F` [Compound 110, N-(2,4-Difluoro-3-methylphenyl)-3-fluoro-1-methyl-4-[(3-methyloxetan-3-yl)sulfamoyl]-1H-pyrrole-2-carboxamide] were 20 nM, 30 nM and > 25 µM.
Turning to `Cn1cc(S(=O)(=O)NC2(C)COC2)c(F)c1C(=O)Nc1cc(F)c(F)c(Cl)c1` [Compound 111, N-(3-Chloro-4,5-difluorophenyl)-3-fluoro-1-methyl-4-[(3-methyloxetan-3-yl)sulfamoyl]-1H-pyrrole-2-carboxamide], the EC50 with HBV [1] and with HBV [3] was 7 nM throughout. The CC50 at 4 days in series [2] is > 25 µM.
As for `Cc1c(F)ccc(NC(=O)c2cc(S(=O)(=O)NC(C)(C)C)cn2C)c1F` [Compound 112, 4-(tert-butylsulfamoyl)-N-(2,4-difluoro-3-methyl-phenyl)-1-methyl-pyrrole-2-carboxamide], the figures for the EC50 in the series on HBV [1] and in the series on HBV [3] were 60 nM and 90 nM, respectively. Further, in series [2], the CC50 at 4 days is > 25 µM.
Taken in the same sequence, the figures for `Cn1cc(S(=O)(=O)NC2(C)COC2)c(F)c1C(=O)Nc1ccc(F)c(C#N)c1` [Compound 113, N-(3-cyano-4-fluoro-phenyl)-3-fluoro-1-methyl-4-[(3-methyloxetan-3-yl)sulfamoyl]pyrrole-2-carboxamide] were 30 nM, 20 nM and > 25 µM.
Taken in the same sequence, the figures for `Cn1cc(S(=O)(=O)NC2(C(N)=O)CC2)cc1C(=O)Nc1cc(F)c(F)c(Cl)c1` [Compound 114, 4-[(1-Carbamoylcyclopropyl)sulfamoyl]-N-(3-chloro-4,5-difluorophenyl)-1-methyl-1H-pyrrole-2-carboxamide] were 100 nM, 50 nM and > 25 µM.
The matching figures for `CNC(=O)C1(NS(=O)(=O)c2cc(C(=O)Nc3cc(F)c(F)c(Cl)c3)n(C)c2)CC1` [Compound 115, N-(3-Chloro-4,5-difluorophenyl)-1-methyl-4-{[1-(methylcarbamoyl)cyclopropyl]sulfamoyl}-1H-pyrrole-2-carboxamide]: 300 nM, 110 nM and > 25 µM.
Take `Cc1c(F)ccc(NC(=O)c2cc(S(=O)(=O)N[C@H](C)C(F)(F)F)cn2C)c1F` [Compound 116, N-(2,4-Difluoro-3-methylphenyl)-1-methyl-4-{[(1R)-2,2,2-trifluoro-1-methylethyl]sulfamoyl}-1H-pyrrole-2-carboxamide]: the EC50 came out at 30 nM with HBV [1] and 20 nM with HBV [3]. Besides, the CC50 at 4 days in series [2] is > 25 µM.
The matching figures for `Cc1c(F)ccc(NC(=O)c2cc(S(=O)(=O)NC3(C(F)(F)F)CC3)cn2C)c1F` [Compound 117, N-(2,4-Difluoro-3-methylphenyl)-1-methyl-4-{[1-(trifluoromethyl)-cyclopropyl]sulfamoyl}-1H-pyrrole-2-carboxamide]: 7 nM, 10 nM and > 25 µM.
Taken in the same sequence, the figures for `Cc1c(F)ccc(NC(=O)c2cc(S(=O)(=O)NC(C)(C)C(F)(F)F)cn2C)c1F` [Compound 118, N-(2,4-Difluoro-3-methylphenyl)-1-methyl-4-[(2,2,2-trifluoro-1,1-dimethylethyl)sulfamoyl]-1H-pyrrole-2-carboxamide] were 50 nM, 20 nM and > 25 µM.
Consider `Cc1c(F)ccc(NC(=O)c2cc(S(=O)(=O)N[C@@H](C)C(F)(F)F)cn2C)c1F` [Compound 119, N-(2,4-Difluoro-3-methylphenyl)-1-methyl-4-{[(1S)-2,2,2-trifluoro-1-methylethyl]sulfamoyl}-1H-pyrrole-2-carboxamide], for which the figures for the EC50 in the series with HBV [1] and in the series on HBV [3] were 30 nM and 10 nM, respectively. In series [2], the CC50 at 4 days is > 25 µM.
The matching figures for `C[C@@H](NS(=O)(=O)c1cc(C(=O)Nc2ccc(F)c(Cl)c2F)n(C)c1)C(F)(F)F` [Compound 120, N-(3-Chloro-2,4-difluorophenyl)-1-methyl-4-{[(1R)-2,2,2-trifluoro-1-methylethyl]sulfamoyl}-1H-pyrrole-2-carboxamide]: 30 nM, 30 nM and > 25 µM.
The matching figures for `Cn1cc(S(=O)(=O)NC2(C)COC2)cc1C(=O)Nc1ccc(F)c(Cl)c1F` [Compound 121, N-(3-Chloro-2,4-difluorophenyl)-1-methyl-4-[(3-methyloxetan-3-yl)sulfamoyl]-1H-pyrrole-2-carboxamide]: 50 nM, 40 nM and > 25 µM.
The matching figures for `C[C@@H](NS(=O)(=O)c1cc(C(=O)Nc2cccc(C(F)(F)F)c2)n(C)c1)C(F)(F)F` [Compound 122, 1-methyl-4-[[(1R)-2,2,2-trifluoro-1-methyl-ethyl]sulfamoyl]-N-[3-(trifluoromethyl)phenyl]pyrrole-2-carboxamide]: 70 nM, > 1000 nM and 13.1 µM.
For `C[C@@H](NS(=O)(=O)c1cc(C(=O)Nc2ccc(F)c(Cl)c2)n(C)c1)C(F)(F)F` [Compound 123, N-(3-Chloro-4-fluorophenyl)-1-methyl-4-{[(1R)-2,2,2-trifluoro-1-methylethyl]sulfamoyl}-1H-pyrrole-2-carboxamide], the half-maximal effective concentration (EC50) with HBV [1] and with HBV [3] was 40 nM throughout. For the same compound, the CC50 at 4 days in series [2] was > 25 µM.
Turning to `C[C@@H](NS(=O)(=O)c1cc(C(=O)Nc2ccc(F)c(Br)c2)n(C)c1)C(F)(F)F` [Compound 124, N-(3-Bromo-4-fluorophenyl)-1-methyl-4-{[(1R)-2,2,2-trifluoro-1-methylethyl]sulfamoyl}-1H-pyrrole-2-carboxamide], the EC50 in the series with HBV [1] and in the series with HBV [3] was 40 nM each time. Moreover, the CC50 at 4 days in series [2] is > 25 µM.
On to `C[C@@H](NS(=O)(=O)c1cc(C(=O)Nc2ccc(F)c(C(F)(F)F)c2)n(C)c1)C(F)(F)F` [Compound 125, N-[4-Fluoro-3-(trifluoromethyl)phenyl]-1-methyl-4-{[(1R)-2,2,2-trifluoro-1-methylethyl]sulfamoyl}-1H-pyrrole-2-carboxamide], for which the values for the EC50 in the series with HBV [1] and in the series with HBV [3] were 190 nM and 80 nM, respectively. Moreover, half-maximal cytotoxicity in series [2] (CC50 at 4 days) was put at 16.7 µM.
As to `Cn1cc(S(=O)(=O)NCC(F)F)cc1C(=O)Nc1ccc(F)c(C#N)c1` [Compound 126, N-(3-Cyano-4-fluorophenyl)-4-[(2,2-difluoroethyl)sulfamoyl]-1-methyl-1H-pyrrole-2-carboxamide], the EC50 stood at 590 nM with HBV [1] and 230 nM in the series with HBV [3]. Besides, the CC50 at 4 days in series [2] is > 25 µM.
